Measurements taken from publication PMC11133429, “Regiodivergent biosynthesis of bridged bicyclononanes” (Nature Communications, 2024).

Experiments:
HsCPTa = tested on: T1, HsCPTa; assay: HPLC prenyltransferase assay, yeast microsomes; type: biochemical, Hypericum sampsonii; conditions: optimum conditions, Mg2+, pH optimum 7
T1 construct: cDNA in pESC-URA (GAL1), S. cerevisiae INVSc1 microsomal fraction; no tag mentioned

HsCPTb = tested on: T2, HsCPTb; assay: HPLC prenyltransferase assay, yeast microsomes; type: biochemical, Hypericum sampsonii; conditions: optimum conditions, Mg2+, pH optimum 10
T2 construct: cDNA in pESC-URA (GAL1), S. cerevisiae INVSc1 microsomal fraction; no tag mentioned

SMILES | Km (HsCPTa; DMAPP saturation) | Km (HsCPTb; prenyl donor, acceptor grandone (only one accepted)) | Km (HsCPTa; prenyl donor, acceptor not given) | Km (HsCPTb; DMAPP saturation)
CC(C)=CCC1=C(O)C(CC=C(C)C)(CC=C(C)C)C(=O)C(C(=O)C(C)C)=C1O [colupulone] | 106 ± 9.86 µM | – | – | –
CC(C)=CCOP(=O)(O)OP(=O)(O)O [DMAPP] | – | 298 ± 29.5 µM | 65.4 ± 6.63 µM | –
CC(C)=CCC/C(C)=C/C[C@]1(CC=C(C)C)C(=O)C(CC=C(C)C)=C(O)/C(=C(\O)c2ccccc2)C1=O [compound 2, kolanone] | 114 ± 20 µM | – | – | –
CC(C)=CCC1=C(O)C(CC=C(C)C)(CC=C(C)C)C(=O)C(C(=O)c2ccccc2)=C1O [compound 1, grandone] | 62 ± 10.1 µM | – | – | 40.4 ± 5.06 µM
